In publication PMC8443597, “A prostate-specific membrane antigen activated molecular rotor for real-time fluorescence imaging” (Nature Communications, 2021) one finds IC50 data, which are given here for 3 molecules.

In assay [1] the target is T1, prostate-specific membrane antigen (PSMA) (Homo sapiens, UniProt Q04609).
T1 construct: gene FOLH1; extracellular domain of human PSMA (rhPSMA; amino acids 44–750)
Nature of the assay: X-ray crystal structure ([…] Å); fluorescence saturation binding; IC50 from […]H-NAAG radioenzymatic assay. The assay is classed as biochemical.

The target in assay [2] is T1, prostate-specific membrane antigen (PSMA). The assay can be described thus: fluorescence saturation binding ([…]) with rhPSMA; IC50 from […]H-NAAG radioenzymatic assay. Format: biochemical.

T1 sequence (Q04609 44-750): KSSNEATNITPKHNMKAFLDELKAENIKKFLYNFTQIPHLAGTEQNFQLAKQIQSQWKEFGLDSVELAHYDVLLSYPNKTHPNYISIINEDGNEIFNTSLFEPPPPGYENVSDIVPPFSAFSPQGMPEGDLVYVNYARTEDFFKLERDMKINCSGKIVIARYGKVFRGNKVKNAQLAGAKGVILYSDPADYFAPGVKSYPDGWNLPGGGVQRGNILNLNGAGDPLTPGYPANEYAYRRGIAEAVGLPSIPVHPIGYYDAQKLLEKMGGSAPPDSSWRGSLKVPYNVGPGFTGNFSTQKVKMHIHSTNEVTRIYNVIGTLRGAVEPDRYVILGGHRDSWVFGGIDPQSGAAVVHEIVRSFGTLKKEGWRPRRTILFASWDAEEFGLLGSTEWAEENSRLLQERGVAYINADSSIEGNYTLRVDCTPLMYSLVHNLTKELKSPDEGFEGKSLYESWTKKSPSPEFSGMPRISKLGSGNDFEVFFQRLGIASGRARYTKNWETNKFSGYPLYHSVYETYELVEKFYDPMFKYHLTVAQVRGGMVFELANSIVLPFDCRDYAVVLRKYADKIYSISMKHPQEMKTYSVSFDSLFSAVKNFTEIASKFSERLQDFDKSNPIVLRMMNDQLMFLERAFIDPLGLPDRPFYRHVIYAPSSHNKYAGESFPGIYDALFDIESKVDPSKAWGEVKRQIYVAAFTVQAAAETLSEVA

The IC50 is the concentration that inhibits the measured activity by half. As for `COC(=O)CCN1CCCc2cc(-c3ccc(C=C(C#N)C(=O)NCCCC[C@H](NC(=O)N[C@@H](CCC(=O)O)C(=O)O)C(=O)O)s3)ccc21` [Glu-490, (((S)-1-carboxy-5-(2-cyano-3-(5-(1-(3-methoxy-3-oxopropyl)-1,2,3,4-tetrahydroquinolin-6-yl)thiophen-2-yl)acrylamido)pentyl)carbamoyl)-L-glutamic acid], the IC50 in assay [1] worked out at 0.0631 nM.

`COC(=O)CCN1CCCc2cc(C=C(C#N)C(=O)NCCCC[C@H](NC(=O)N[C@@H](CNC(=O)C(=O)O)C(=O)O)C(=O)O)ccc21` [ODAP-436, (4 S,8 S)-15-cyano-16-(1-(3-methoxy-3-oxopropyl)-1,2,3,4-tetrahydroquinolin-6-yl)-1,6,14-trioxo-2,5,7,13-tetraazahexadec-15-ene-1,4,8-tricarboxylic acid]: the IC50 in assay [2] is 0.118 nM.

The molecule `COC(=O)CCN1CCCc2cc(-c3ccc(C=C(C#N)C(=O)NCCCC[C@H](NC(=O)N[C@@H](CNC(=O)C(=O)O)C(=O)O)C(=O)O)s3)ccc21` [ODAP-490, (4 S,8 S)-15-cyano-16-(5-(1-(3-methoxy-3-oxopropyl)-1,2,3,4-tetrahydroquinolin-6-yl)thiophen-2-yl)-1,6,14-trioxo-2,5,7,13-tetraazahexadec-15-ene-1,4,8-tricarboxylic acid] had an IC50 in assay [2] of 0.0996 nM.
